This experiment concerns the target T1, HDAC6 (Homo sapiens, UniProt Q9UBN7).
T1 sequence (Q9UBN7 1-1215): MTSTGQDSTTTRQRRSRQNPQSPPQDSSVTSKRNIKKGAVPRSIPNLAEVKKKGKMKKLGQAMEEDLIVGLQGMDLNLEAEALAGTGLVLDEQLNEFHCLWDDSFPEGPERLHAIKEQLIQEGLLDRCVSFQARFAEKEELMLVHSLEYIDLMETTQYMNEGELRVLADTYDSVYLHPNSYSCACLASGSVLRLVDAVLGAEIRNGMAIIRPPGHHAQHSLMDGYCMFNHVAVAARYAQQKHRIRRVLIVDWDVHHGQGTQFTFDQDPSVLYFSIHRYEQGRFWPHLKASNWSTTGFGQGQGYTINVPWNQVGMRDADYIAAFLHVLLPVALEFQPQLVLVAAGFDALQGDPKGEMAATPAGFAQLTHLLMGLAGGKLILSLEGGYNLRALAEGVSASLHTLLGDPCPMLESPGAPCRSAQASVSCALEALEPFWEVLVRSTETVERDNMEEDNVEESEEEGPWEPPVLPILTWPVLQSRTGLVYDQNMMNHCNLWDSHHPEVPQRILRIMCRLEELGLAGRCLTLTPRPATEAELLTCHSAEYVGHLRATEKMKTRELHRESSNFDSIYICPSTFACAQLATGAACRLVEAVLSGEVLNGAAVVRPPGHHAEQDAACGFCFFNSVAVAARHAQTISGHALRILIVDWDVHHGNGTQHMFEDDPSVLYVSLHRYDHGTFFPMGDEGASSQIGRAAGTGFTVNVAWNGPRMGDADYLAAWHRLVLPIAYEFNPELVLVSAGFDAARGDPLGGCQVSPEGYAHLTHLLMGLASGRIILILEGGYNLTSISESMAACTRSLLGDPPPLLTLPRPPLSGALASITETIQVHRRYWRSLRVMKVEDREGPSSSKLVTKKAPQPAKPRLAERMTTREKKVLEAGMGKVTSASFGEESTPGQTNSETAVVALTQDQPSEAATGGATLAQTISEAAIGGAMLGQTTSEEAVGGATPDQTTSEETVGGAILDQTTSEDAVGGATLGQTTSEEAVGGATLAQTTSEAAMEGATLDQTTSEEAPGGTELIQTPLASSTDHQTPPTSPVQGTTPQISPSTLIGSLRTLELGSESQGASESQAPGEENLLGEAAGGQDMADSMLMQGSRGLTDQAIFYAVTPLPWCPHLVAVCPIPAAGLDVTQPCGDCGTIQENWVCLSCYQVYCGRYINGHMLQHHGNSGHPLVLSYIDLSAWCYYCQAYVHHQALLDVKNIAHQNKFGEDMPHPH
The experiment is described as follows: Simple Western immunoassay, HDAC6 levels in U-87MG cell lysates. Particulars: 10 μM, 24 h. More on the design: endogenous in cells; host or cells: MM.1S. The experiment is classed as cell-based. The method, then: Figure S5. Analysis of HDAC1 and 6 degradation in U-87MG cells. Simple western immunoassay analysis of U-87MG cell lysates. The cells were treated with the indicated compound (10 µM) or vehicle (DMSO) for 24 h. Top: Quantification of HDAC levels, presented as mean ± standard deviation of n = 2 biological replicates; Significance compared to vehicle: ns = p≥0.05 and *** = p≤0.001. Bottom:
Representative images of n = 2 biological replicates.
(1 picture or pasted object on this page, not shown here)
2. Biological Experiments
No unexpected or unusually high safety hazards were encountered.
The human multiple myeloma cell line MM.1S (CRL-2974) was obtained from American Type Culture Collection (ATCC, Manassas, VA, USA). […]
Louis, MO, USA) according to manufacturer´s instructions. Protein content was determined by Pierce™ BCA Protein Assay Kit (Catalog# 23225, Thermo Fisher Scientific Inc.) according to manufacturer´s guidelines. […]
Fluorescence Separation 8x25 Capillary Cartridges (Catalog# SM-FL004-1, Protein Simple, Bio-Techne, Minneapolis, MN, USA) were used for separation and the Anti-Mouse Detection Module (Catalog# DM-002, Protein Simple) was used for detection with addition of 20x Anti-Rabbit HRP […]
Conjugate (Catalog# 043-426, Protein Simple) according to manufacturer´s instructions. […] Evaluation and quantification was performed with the compass software (6.2.0, Protein Simple). […]

Consider `O=C(CCCCCCNC(=O)c1ccc(NC(=O)CCCCCCCCCCCN(C(=O)CCl)C(C(=O)NCc2ccccc2)c2ccc(Cl)c(Cl)c2)cc1)NO` (stereo not shown) [Compound 1j], for which the “HDAC6 degradation in U-87MG cells” value was “significant HDAC1 and 6 degradation”.

For the origin of these results see article PMC12091851, “Replacing a Cereblon Ligand by a DDB1 and CUL4 Associated Factor 11 (DCAF11) Recruiter Converts a Selective Histone Deacetylase 6 PROTAC into a Pan‐Degrader” (Chemmedchem, 2025).
